We go through six compounds from patent US20220064138A1, “MACROLIDE BREFELDIN A ESTER DERIVATIVES AND USE THEREOF” (OCEAN UNIVERSITY OF CHINA, priority 2019, published 2022).

Data set [1] relates to Human cervical cancer Hela cells. The data set can be described thus: Cell proliferation assay (CCK-8). Format: cell-based. The settings on record: 72 h. The method, boiled down: (§1)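 Log-phase cells seeded 5000/well in DMEM + 10% FBS, dosed after 24 h in duplicate wells (DMSO ≤2‰) and incubated 72 h at 37 °C, 5% CO2. CCK-8 (WST-8) added for 1.5–3 h, OD450 read; % inhibition vs control minus blank, IC50 by variable-slope log(inhibitor)–response fit.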

Data set [2] deals with esophageal cancer Eca-109 cells. Briefly: Cell proliferation assay (CCK-8). The following applies: Homo sapiens, Eca-109, 72 h. Type of data set: cell-based. The method, boiled down: as §1
The test system of data set [3] is human breast cancer MCF7 cells. The data set can be described thus: Cell proliferation assay (CCK-8). Format: cell-based. The settings on record: MCF7, 72 h. The method, boiled down: as §1
In data set [4] the test system is human gastric cancer MKN-45 cells. Briefly: Cell proliferation assay (CCK-8). The following applies: MKN-45, 72 h. Format: cell-based. The method, boiled down: as §1
Data set [5] relates to human leukemia K562 cells. The data set can be described thus: Cell proliferation assay (CCK-8). Format: cell-based. The following applies: K562, 72 h. The method, boiled down:
as §1

For data set [6], the system named is human liver cancer HepG2 cells. The data set can be described thus: Cell proliferation assay (CCK-8). Type of data set: cell-based. The following applies: HepG2, 72 h. The method, boiled down: as §1
The test system of data set [7] is human lung cancer A549 cells. The data set can be described thus: Cell proliferation assay (CCK-8). The settings on record: A549, 72 h. Type of data set: cell-based. The method, boiled down: as §1
Data set [8] relates to pancreatic cancer PANC-1 cells. The data set can be described thus: Cell proliferation assay (CCK-8). Format: cell-based. The settings on record: Homo sapiens, PANC-1, 72 h. The method, boiled down:
as §1

Another data set has as its system Kunming breed mice. The data set can be described thus: Toxicity test after intraperitoneal administration to mice. Type of data set: in vivo. The following applies: 14 d; for Deaths: high and low doses (BFA effective amount conversion), ip., mice; for Mental condition of the animals after administration / Results of anatomy: abnormality in organs: male, Kunming, mouse, in vivo, ip. How it is done: Objective: Observation of toxic effects of compounds after intraperitoneally administration (ip.) to mice
1) Agents: Compounds disclosed herein were formulated to a suitable concentration.
2) Animals: Kunming breed mice, weight 18-22 g, male. Provided by Jinan Pengyue Laboratory Animal Breeding Co., Ltd. Animal license number: SCXK (Shandong 20140007)
Method: Kunming breed mice, were randomly grouped by weight, 6 mice per group, namely normal control group, BFA high and low dose groups (100 mg/kg and 50 mg/kg, respectively), and high and low dose groups of some compounds disclosed herein (BFA effective amount conversion). […] After 14 d of continuous administration, all the animals were weighed, and the animals were executed to observe whether there were any abnormalities in the organs.

Data set [9] can be described thus: Solubility test (shaking 24 h at 37° C., HPLC).
Method: (§2) Methods: Excess BFA and the compounds disclosed herein were added to 10 mL of three solvents, methanol, acetone and 5% DMSO+95% H2O, respectively, and shaken on a shaker at 37° C. at 100 r/min for 24 h. After 24 h, the samples were centrifuged at 15 000 r/min for 15 min to remove the undissolved compounds. The supernatant was filtered using a 0.45 μm membrane filter. The supernatant was appropriately diluted with methanol and contents of the compounds were determined by HPLC method to calculate the solubility.
Another data set in a line: physchem. The settings on record: 37° C., x ± s, n = 3.

One may read the IC50 as the concentration needed to halve the response being measured. In general, solubility refers to the concentration that dissolves in the medium under given conditions.

In brackets after ≈: the same amount, converted by molar mass.

Method for physchem: as §2

For the compound `C[C@H]1CCC/C=C/[C@@H]2C[C@H](OC(=O)/C=C/c3cccc(F)c3)C[C@H]2[C@H](OC(=O)/C=C/c2cccc(F)c2)/C=C/C(=O)O1` [Compound 1c, 4,7-O-bis(3-fluorocinnamic acid)acyl BFA], the IC50 in [1] is 1 to 10 µM; in [2] it was 1 to 10 µM; in data set [3] it was 1 to 10 µM; in data set [4] it was 0.1 to 1 µM; in data set [5] it was 0.1 to 1 µM; in data set [6] it was 1 to 10 µM. The IC50 in [7] and in data set [8] was 1 to 10 µM each time. Further, the Deaths entry with Kunming breed mice was “no deaths”. In the data set with Kunming breed mice, the “Mental condition of the animals after administration” value (from here on “Mental condition of the animals”) was “good mental condition”. The “Results of anatomy: abnormality in organs” value with Kunming breed mice is recorded as “no significant abnormality in all organs”. In addition, the solubility at 24 h in data set [9] (5% DMSO + 95% H2O) was 0.2 ± 0.91 mg/mL; in data set [9] (acetone), 12.1 ± 0.91 mg/mL (≈ 21.1 mM); in data set [9] (methanol), 12.2 ± 1.59 mg/mL (≈ 21.2 mM).

In the case of `C[C@H]1CCC/C=C/[C@@H]2C[C@H](OC(=O)/C=C/c3ccc(N(C)C)cc3)C[C@H]2[C@H](O)/C=C/C(=O)O1` [Compound 10a, 7-O-(4-dimethylaminocinnamic acid)acyl BFA], the IC50 in data set [1] was 1 to 10 µM; in data set [2], 1 to 10 µM; in [3] it was 0.1 to 1 µM; in [4] it was 0.1 to 1 µM; in data set [5] it was 0.1 to 1 µM; in data set [6], 1 to 10 µM. Moreover, the IC50 in data set [7] was in the range of 0.1 to 1 µM; in data set [8], 1 to 10 µM. For the same compound, the Deaths entry with Kunming breed mice is on record as “no deaths”. In the data set with Kunming breed mice, the “Mental condition of the animals” value is listed as “good mental condition”. In addition, the “Results of anatomy: abnormality in organs” value in the data set with Kunming breed mice was “no significant abnormality in all organs”. Further, the solubility at 24 h in data set [9] (5% DMSO + 95% H2O) came out at 0.75 ± 1.6 mg/mL; in [9] (acetone), 25.6 ± 1.74 mg/mL (≈ 56.5 mM); in [9] (methanol), 25.3 ± 4.35 mg/mL (≈ 55.7 mM).

As for `C[C@H]1CCC/C=C/[C@@H]2C[C@H](O)C[C@H]2[C@H](OC(=O)/C=C/c2ccc(N(C)C)cc2)/C=C/C(=O)O1` [Compound 10b, 4-O-(4-dimethylaminocinnamic acid)acyl BFA], the IC50 lay in the range of 0.1 to 1 µM in [1]; 1 to 10 µM in data set [2]; 0.1 to 1 µM in data set [3]; 0.1 to 1 µM in data set [4]; 0.1 to 1 µM in data set [5]; 0.1 to 1 µM in data set [6]. Also, the IC50 in data set [7] and in data set [8] was 0.1 to 1 µM each time. Further, the Deaths entry with Kunming breed mice is recorded as “no deaths”. For the same compound, in the data set on Kunming breed mice, the “Mental condition of the animals” value is given as “good mental condition”. In the data set with Kunming breed mice, the “Results of anatomy: abnormality in organs” value is recorded as “no significant abnormality in all organs”. Besides, the solubility at 24 h came out at 0.72 ± 0.13 mg/mL in data set [9] (5% DMSO + 95% H2O), 23.2 ± 1.32 mg/mL (≈ 51.1 mM) in [9] (acetone) and 24.2 ± 1.22 mg/mL (≈ 53.3 mM) in data set [9] (methanol).

Consider `C[C@H]1CCC/C=C/[C@@H]2C[C@H](OC(=O)/C=C/c3ccc(N(C)C)cc3)C[C@H]2[C@H](OC(=O)/C=C/c2ccc(N(C)C)cc2)/C=C/C(=O)O1` [Compound 10c, 4,7-O-bis(4-dimethylaminocinnamic acid)acyl BFA], for which the IC50 in data set [1] lay within 1 to 10 µM; in data set [2] it was 1 to 10 µM; in data set [3] it was 1 to 10 µM; in data set [4], 0.1 to 1 µM; in [5] it was 0.1 to 1 µM; in [6], 1 to 10 µM. Also, the IC50 in [7] lay in the range of 0.1 to 1 µM; in data set [8], 1 to 10 µM. Also, the Deaths result with Kunming breed mice is reported as “no deaths”. Also, the “Mental condition of the animals” value with Kunming breed mice is on record as “good mental condition”. In the data set on Kunming breed mice, the “Results of anatomy: abnormality in organs” value is on record as “no significant abnormality in all organs”. Besides, the figures for the solubility at 24 h in [9] (5% DMSO + 95% H2O), in data set [9] (acetone) and in data set [9] (methanol) were 0.44 ± 0.08 mg/mL, 12.5 ± 0.92 mg/mL (≈ 20 mM) and 13.3 ± 0.91 mg/mL (≈ 21.3 mM), respectively.

In the case of `C[C@H]1CCC/C=C/[C@@H]2C[C@H](OC(=O)/C=C/c3cccnc3)C[C@H]2[C@H](O)/C=C/C(=O)O1` [Compound 16a, 7-O-(3-(pyridine-3-yl)acrylic acid)acyl BFA], the IC50 in [1] is 0.1 to 1 µM; in data set [2] it was 0.1 to 1 µM; in data set [3], 0.1 to 1 µM; in data set [4], 0.1 to 1 µM; in data set [5], 0.1 to 1 µM; in [6], under 0.1 µM. Also, the figures for the IC50 in data set [7] and in data set [8] were 0.1 to 1 µM and under 0.1 µM, respectively. The Deaths entry in the data set with Kunming breed mice is “no deaths”. In addition, the “Mental condition of the animals” value with Kunming breed mice was “good mental condition”. The “Results of anatomy: abnormality in organs” value in the data set on Kunming breed mice is on record as “no significant abnormality in all organs”. In addition, the concentration in solution in the data set “physchem” (Acetone) (solubility at 24 h) was 31.6 ± 0.72 mg/mL (≈ 76.8 mM).

For the compound `C[C@H]1CCC/C=C/[C@@H]2C[C@H](OC(=O)/C=C/c3cnc4ccccc4c3)C[C@H]2[C@H](OC(=O)/C=C/c2cnc3ccccc3c2)/C=C/C(=O)O1` [Compound 17c], the IC50 in data set [1] was in the range of 1 to 10 µM; in [2] it was 1 to 10 µM; in data set [3], 0.1 to 1 µM; in [4] it was 1 to 10 µM; in [5] it was 0.1 to 1 µM; in [6] it was 0.1 to 1 µM. The IC50 in data set [7] was 1 to 10 µM; in data set [8] it was 0.1 to 1 µM. Moreover, the figures for the solubility at 24 h in “physchem” (5% DMSO + 95% H2O) and in “physchem” (Methanol) were 0.45 ± 0.28 mg/mL and 20.4 ± 0.52 mg/mL (≈ 31.8 mM), respectively.
